We go through one molecule from US20040048892A1, “Treatment of diseases with adamantane derivatives” (priority 2000, published 2004).

Like-named read-outs stand apart in the source and are kept apart here.

For assay [1], the system named is inhibitory postsynaptic currents (IPSC) in outer hair cells (OHCs). Briefly: Patch-clamp recording of inhibitory postsynaptic currents (IPSC) in outer hair cells. In kind it is cell-based, Wistar rats. On the procedure:
(§1) The apical turn of the organ of Corti was dissected from cochleae of three to six week old Wistar rats as described previously (Oliver et al., 1999, J Physiol (Lond) 519, 791-800; Oliver et al., 2000, Neuron 26, 595-601). The preparation was performed in a solution containing (in mM) 144 NaCl, 5.8 KCl, 0.1 CaCl2, 2.1 MgCl2, 10 HEPES, 0.7 Na2HPO4, 5.6 glucose, pH adjusted to 7.3 with NaOH. For recordings, OHCs located between half and one turn from the apex of the cochlea were chosen. If necessary, supporting cells were removed with gentle suction from a cleaning pipette carefully avoiding mechanical disturbance of the efferent nerve terminals.
Whole-cell patch-clamp recordings were performed with an Axopatch 200B amplifier (Axon Instruments, Foster City, Calif.) at room temperature (22-25° C.). Electrodes were pulled from quartz glass, had resistances of 2-3 MΩ and were filled with intracellular solution (in mM): 135 KCl, 3.5 MgCl2, 0.1 CaCl2, 5 EGTA, 5 HEPES, 2.5 Na2ATP. For one series of experiments, an intracellular solution containing the Ca^2+-chelator BAPTA was used (in mM): 120 KCl, 3.5 MgCl2, 10 BAPTA, 5 HEPES, 2.5 Na2ATP. The pH of both solutions was adjusted to pH 7.3 with KOH. Membrane potential was corrected for the electrode junction potential (−4 mV). Whole-cell series resistance ranged from 4 to 9 MΩ and was not compensated. Currents were filtered at 1 kHz and sampled at 5 kHz. The specimen were continuously superfused with extracellular solution (in mM: 144 NaCl, 5.8 KCl, 2 CaCl2, 0.9 MgCl2, 10 HEPES, 0.7 Na2HPO4, 5.6 glucose, pH adjusted to 7.3 with NaOH). Chemicals as well as depolarizing solutions were applied via a glass capillary (diameter approximately 80 μm) positioned close to the organ of Corti. […]
In FIG. 1, postsynaptic currents were recorded from OHCs in voltage-clamp experiments when cells were held at −64 mV and the whole Corti preparation was superfused with high extracellular K^+ to depolarize the presynapse. […] This dose-dependent response determined for the IPSC in OHCs is illustrated in FIG. 1B.
(The patch-clamp technique gives a direct electrical read-out from membranes.)

The target in another assay is T1, α9/α10 nAChR (Rattus norvegicus, UniProt P43144+Q9JLB5).
T1 construct: The coding region of the rat α10 gene; expressed in transfected cells; host or cells: Xenopus laevis oocytes (mRNA injection)
T1 sequence (P43144 26-479): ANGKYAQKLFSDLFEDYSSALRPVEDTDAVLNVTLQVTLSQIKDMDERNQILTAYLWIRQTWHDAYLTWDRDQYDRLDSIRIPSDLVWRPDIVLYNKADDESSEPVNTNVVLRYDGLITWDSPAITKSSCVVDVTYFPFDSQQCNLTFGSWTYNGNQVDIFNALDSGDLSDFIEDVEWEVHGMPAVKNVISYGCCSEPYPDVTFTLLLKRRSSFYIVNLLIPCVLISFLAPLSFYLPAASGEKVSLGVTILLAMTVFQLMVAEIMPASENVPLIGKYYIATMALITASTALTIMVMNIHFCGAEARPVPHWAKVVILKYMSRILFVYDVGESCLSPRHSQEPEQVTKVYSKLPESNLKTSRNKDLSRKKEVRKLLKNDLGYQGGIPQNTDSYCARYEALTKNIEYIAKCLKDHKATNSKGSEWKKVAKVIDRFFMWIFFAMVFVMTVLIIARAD
T1 sequence (Q9JLB5 25-447): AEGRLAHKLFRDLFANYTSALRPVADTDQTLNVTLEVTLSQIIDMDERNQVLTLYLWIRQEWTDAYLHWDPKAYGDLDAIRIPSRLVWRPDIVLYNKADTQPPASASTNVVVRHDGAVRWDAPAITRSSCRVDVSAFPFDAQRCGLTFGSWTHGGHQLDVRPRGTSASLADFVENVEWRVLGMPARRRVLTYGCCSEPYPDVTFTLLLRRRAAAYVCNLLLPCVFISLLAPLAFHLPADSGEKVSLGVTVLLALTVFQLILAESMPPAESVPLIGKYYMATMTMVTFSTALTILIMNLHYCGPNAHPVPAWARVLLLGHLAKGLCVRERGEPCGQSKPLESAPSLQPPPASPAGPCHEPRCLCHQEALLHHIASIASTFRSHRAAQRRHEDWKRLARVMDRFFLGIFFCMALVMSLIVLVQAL
Briefly: Two-electrode voltage-clamp on α9/α10 nAChR expressed in Xenopus oocytes. It counts as cell-based. The method, then: (§2) In vitro mRNA synthesis and oocyte injections were performed as previously described (Fakler et al., 1995, Cell 80, 149-154; Oliver et al., 2000, see above). The electrophysiology on oocytes was also as described previously (Oliver et al., 2000, see above). In detail, AChR subunits and SK2 channels were heterologously expressed in Xenopus oocytes. Oocytes were surgically removed from adult females and dissected manually. 4-5 day prior to electrophysiological recordings, Dumont stage VI oocytes were injected with about 50 ng RNA. For coexpression experiments, the total amount of RNA was kept constant and the different RNAs were coinjected in equal concentrations. Two-electrode voltage-clamp measurements were performed with a TurboTec 01C amplifier (npi, Tamm, Germany), using microelectrodes of 0.1 to 0.5 MΩ filled with 3 M KCl. Extracellular medium was CaNFR, containing (in mM): 120 KCl, 2.5 KCl, 2 CaCl2, 10 HEPES, pH adjusted to 7.3 with NaOH. For experiments in the absence of extracellular Ca^2+, the extracellular solution was MgNFR (in mM): 120 KCl, 2.5 KCl, 2 MgCl2, 10 HEPES, pH adjusted to 7.3 with NaOH. ACh and memantine were added from stock solutions and applied through an application system, that allowed solution exchange with a time constant of ˜1s. Currents were filtered at 100 Hz and sampled at a frequency of 1 kHz. Dose-inhibition relations obtained from electrophysiological experiments were fitted to the empirical Hill equation, [formula]
where Inorm is the normalized current, c is the blocker concentration, IC50 is the half-inhibitory concentration, and nH is the Hill coefficient. Data analysis and fitting was performed with IgorPro (Wavemetrics, Lake Oswego, Oreg.) on a Macintosh PowerPC. Unless stated otherwise, data are presented as mean±standard deviation.
The coding region of the rat α10 gene (GenBank Accession No. AF196344) was amplified from rat brain cDNA by PCR using 5′- and 3′-adapter-primers containing suitable restriction sites (GA-GACCCGGGAGCTCCACC, […] and […]). The amplified fragments were subcloned into the Xenopus oocyte expression vector pGEM-HE (gift of Dr. J. Tytgat), yielding pGEM-HE-nAChR-α10, verified by sequencing. Capped mRNAs for α9, α10 and SK2 were synthesized in vitro using the mMESSAGE mMACHINE kit (Ambion, Austin, Tex.). To detect α10 and α9 transcripts, PCR was performed using reverse transcribed RNA isolated from either OHCs (containing some Deiters cells) or supporting cells (Deiters and Hensen's cells) as template. Cells were collected from rat organs of Corti using suction glass micropipettes (diameter 10 μm). RNA was prepared from ˜100 cells of each fraction using the Qiagen RNeasy kit (Qiagen, Hilden, FRG) according to the manufacturers instructions. The oligonucleotides used as primers in the PCR reactions were chosen to span an intron in the human α9 and α10 genes to allow differentiation between products originating from cDNA and products originating from contaminating genomic DNA.
In (A) currents evoked by activation of α9/α10 nAChRs are dependent on external Ca^2+. Traces show subsequent applications of 100 μM ACh to the same oocyte in CaNFR (Ca^2+) and MgNFR (Mg^2+) at −80 mV. (B) Currents from homomeric α9 (upper trace) and heteromeric α9/α10 nAChRs (lower trace), recorded by application of 100 μM ACh in nominally Ca^2+-free external solution (MgNFR; −80 mV). (C) Current amplitudes from oocytes expressing α9 and α9/α10, recorded as in FIG. 3B (mean±standard error from 12 and 15 oocytes, respectively). (D) ACh-induced (100 μM) currents recorded from α9/α10 nAChRs in the presence of the memantine concentrations indicated. (E) Memantine dose-inhibition curves of α9/α10 nAChR. Peak currents were recorded as in (D) and normalized to the current amplitude after washout of the blocker. […] (F) I-v relations of α9/α10 nAChR recorded in the absence (black) and presence (gray trace) of 1 μM memantine in response to 2 s voltage ramps from −100 to +50 mV. […]
A general note: Two-electrode voltage clamp holds a large cell at a set potential and records current.

Assay [2] has as its target T2, nAChR-induced SK2 current (α9/α10 nAChR with SK2 channels) (Rattus norvegicus, UniProt P43144+Q9JLB5).
T2 construct: The coding region of the rat α10 gene; expressed in transfected cells; host or cells: Xenopus laevis oocytes (mRNA co-injection)
Briefly: nAChR-induced SK2 current in oocytes coexpressing α9, α10 and SK2. In kind it is cell-based. The conditions noted are these: −30 mV, 100 μM ACh. On the procedure:
as §2, with “ACh and memantine were added from stock solutions and applied through an application system, that allowed solution exchange with a time constant of ˜1s. Currents were filtered at 100 Hz and sampled at a frequency of 1 kHz. Dose-inhibition relations obtained from electrophysiological experiments were fitted to the empirical Hill equation, [formula]” left out
(A) Application of 100 μM ACh for the time indicated to an oocyte coexpressing α9, α10, and SK2. […] Peak outward currents were recorded at −30 mV and were normalized to the values preceding memantine application.

The next assay has as its target T3, nAChR currents in OHCs (Rattus norvegicus, UniProt P43144+Q9JLB5).
T3 construct: Currents through nAChRs were recorded from an OHC; from tissue; host or cells: outer hair cells in the apical turn of the organ of Corti, Wistar rat
Briefly: Steady-state block of nAChR currents in OHCs (BAPTA intracellular solution). The conditions noted are these: −94 mV, 200 μM ACh, 10 mM BAPTA. It counts as cell-based, Wistar rats. The method, then:
as §1
Whole-cell patch-clamp recordings were performed with an Axopatch 200B amplifier (Axon Instruments, Foster City, Calif.) at room temperature (22-25° C.). Electrodes were pulled from quartz glass, had resistances of 2-3 MΩ and were filled with intracellular solution (in mM): 135 KCl, 3.5 MgCl2, 0.1 CaCl2, 5 EGTA, 5 HEPES, 2.5 Na2ATP. […]
(A) Steady-state block of nAChR currents in OHCs by memantine. Currents through nAChRs were recorded from an OHC at a holding potential of −94 mV. […] (B) Dose-inhibition relation for memantine block of nAChR currents (squares), recorded from 4 OHCs as in (A). Steady-state amplitudes were normalized to the value recorded in the absence of memantine. […]

Assay [3] deals with T4, α9/α10 heteromeric acetylcholine receptors (Rattus norvegicus, UniProt P43144+Q9JLB5).
T4 construct: The coding region of the rat α10 gene; expressed in transfected cells; host or cells: Xenopus laevis oocytes (mRNA injection)
T4 sequence (P43144 26-479): as the sequence (P43144 26-479) above
T4 sequence (Q9JLB5 25-447): as the sequence (Q9JLB5 25-447) above
Briefly: Experiment 6: voltage-clamp on alpha9/alpha10 acetylcholine receptors in Xenopus laevis oocytes. In kind it is cell-based. The conditions noted are these: cells held at −30 mV, 100 μM acetylcholine; read-out: halfmaximal inhibition concentration. The method, then: as §2, with “For experiments in the absence of extracellular Ca^2+, the extracellular solution was MgNFR (in mM): 120 KCl, 2.5 KCl, 2 MgCl2, 10 HEPES, pH adjusted to 7.3 with NaOH. ACh and memantine were added from stock solutions and applied through an application system, that allowed solution exchange with a time constant of ˜1s. Currents were filtered at 100 Hz and sampled at a frequency of 1 kHz. Dose-inhibition relations obtained from electrophysiological experiments were fitted to the empirical Hill equation, [formula]” left out
For further characterization of memantine treatment on the nAChR, the mRNA of alpha9/alpha10 subunits of the acetylcholine receptor were injected in oocytes of Xenopus laevis. […] In this experiment the polarization potential of the cells was measured after application of 100 μM acetylcholine in the presence or absence of memantine. […]

The target in assay [4] is NMDA-type glutamate receptors. Conditions: at −70 mV; cited from earlier work.
A further assay addresses neuronal α4/β2 nAChRs (Homo sapiens, UniProt P17787+P43681). Conditions: at −100 mV; cited from earlier work.

T2 sequence (P43144 26-479): as the sequence (P43144 26-479) above
T2 sequence (Q9JLB5 25-447): as the sequence (Q9JLB5 25-447) above
T3 sequence (P43144 26-479): as the sequence (P43144 26-479) above
T3 sequence (Q9JLB5 25-447): as the sequence (Q9JLB5 25-447) above
neuronal α4/β2 nAChRs, sequence (P43681 29-627 limits assumed): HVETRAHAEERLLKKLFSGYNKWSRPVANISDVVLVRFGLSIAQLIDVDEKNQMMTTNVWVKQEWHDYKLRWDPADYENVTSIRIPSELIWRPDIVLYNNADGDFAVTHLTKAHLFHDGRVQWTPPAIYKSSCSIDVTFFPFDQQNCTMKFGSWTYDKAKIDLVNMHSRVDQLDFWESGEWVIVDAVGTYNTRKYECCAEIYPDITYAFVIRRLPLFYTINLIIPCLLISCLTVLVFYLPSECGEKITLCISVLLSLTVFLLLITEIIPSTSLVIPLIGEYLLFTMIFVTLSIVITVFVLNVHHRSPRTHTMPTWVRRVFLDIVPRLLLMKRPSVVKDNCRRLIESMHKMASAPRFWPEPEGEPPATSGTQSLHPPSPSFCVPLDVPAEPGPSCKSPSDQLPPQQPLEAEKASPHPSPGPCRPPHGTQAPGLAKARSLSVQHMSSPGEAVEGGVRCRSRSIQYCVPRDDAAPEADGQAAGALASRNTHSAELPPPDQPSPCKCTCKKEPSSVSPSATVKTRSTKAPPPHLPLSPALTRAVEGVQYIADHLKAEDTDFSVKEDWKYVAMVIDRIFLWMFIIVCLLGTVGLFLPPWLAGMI
neuronal α4/β2 nAChRs, sequence (P17787 26-502): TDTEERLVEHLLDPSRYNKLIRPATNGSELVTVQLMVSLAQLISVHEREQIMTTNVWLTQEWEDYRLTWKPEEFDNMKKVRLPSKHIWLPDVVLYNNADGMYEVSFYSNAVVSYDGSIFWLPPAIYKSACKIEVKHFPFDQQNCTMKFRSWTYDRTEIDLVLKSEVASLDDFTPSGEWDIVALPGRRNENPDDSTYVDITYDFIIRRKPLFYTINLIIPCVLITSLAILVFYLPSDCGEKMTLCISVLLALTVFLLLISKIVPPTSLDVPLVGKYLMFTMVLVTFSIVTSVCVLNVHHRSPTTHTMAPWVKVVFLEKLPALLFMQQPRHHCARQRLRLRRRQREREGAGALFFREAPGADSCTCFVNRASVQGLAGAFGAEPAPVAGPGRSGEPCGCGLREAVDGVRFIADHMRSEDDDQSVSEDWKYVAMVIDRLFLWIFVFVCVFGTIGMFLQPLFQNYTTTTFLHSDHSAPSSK

In the case of `CC12CC3CC(C)(C1)CC(N)(C3)C2` [memantine, 3.5-dimethyl-1-adamantanamine], the “Hill coefficient of inhibition of IPSCs” value in assay [1] is 2. Besides, in assay [1] (IPSCs in OHCs vs SK2 currents in oocytes), the “fold higher concentrations required for inhibition of IPSCs than for inhibition of SK2 currents in the oocyte system” value is listed as 10 fold. Moreover, the IC50 in assay [1] (Rattus norvegicus, iPSC, read-out: IC50 for inhibition of IPSC in OHCs) is ~16600 nM; at α9/α10 nAChR (CaNFR (2 mM Ca2+), 100 μM ACh, peak currents, read-out: IC50 of block of α9/α10 nAChR current), 1300 nM; at α9/α10 nAChR (MgNFR (nominally Ca2+-free), 100 μM ACh, peak currents, read-out: IC50 of block of α9/α10 nAChR current), 1600 nM; on α9/α10 nAChR (summary of FIGS. 3E, 5B, read-out: affinity for memantine of α9/α10 receptors) it was ~1000 nM; in assay [2] (peak outward currents, read-out: IC50 of inhibition of the nAChR-induced SK2 current), 700 nM; at nAChR currents in OHCs (steady-state), 1100 nM. Moreover, the IC50 was ~1000 nM in assay [3], ~1000 nM in assay [4] and 7000 nM on neuronal α4/β2 nAChRs. Besides, the “Increase of memantine block from +50 mV to −80 mV (factor)” value at α9/α10 nAChR (1 μM memantine, voltage ramps, MgNFR) stood at 1.6. Moreover, the “Hill coefficient nH of block of α9/α10 nAChR current” value at α9/α10 nAChR (CaNFR, 100 μM ACh) is on record as 1.0; at α9/α10 nAChR (MgNFR, 100 μM ACh) it was 1.2. Also, the “Hill coefficient nH of inhibition of the nAChR-induced SK2 current” value in assay [2] is 1.1. Besides, at nAChR currents in OHCs, the “Hill coefficient nH of block of nAChR currents in OHCs” value came to 0.9.
